Patent US8361970B2, “Growth factor binding molecules” (University of South Florida, priority 2000, dated 2013)

Key:
[1] = target: T1, VEGF (Homo sapiens, UniProt P15692); assay: Inhibition of [125I]-VEGF binding to NIH 3T3 cells overexpressing VEGFR (Flk-1)
T1 construct: host or cells: NIH 3T3 cells overexpressing Flk-1 carry the receptor
Method: (§1) NIH 3T3 (PDGF) or NIH 3T3 cells overexpressing either EGFR (EGF), IGFR (IGF) or Flk-1 (VEGF), are incubated with [^125I]-PDGF, [^125I]-EGF, [^125I]-IGF or [^125I]-VEGF, respectively (50,000 cpm per well) and increasing concentrations of GFB-111 or GFB-116. Cells are incubated at 4° C. for 1-3 h. After discarding media, the cells are washed 3 times with PBS and three times with Tris 25 mM pH 8.0, 1% T-X-100, 10% glycerol, 1% SDS. Lysates plus wash are counted. Excess of cold growth factors is used to obtain non-specific binding levels.
(§2) Whether GFB 111 can block [^125I]-PDGF-BB specific binding in NIH 3T3 cells is determined by pre-treatment of the PDGF-BB with increasing concentrations of GFB-111. FIG. 2C illustrates that in the absence of GFB-111, [^125I]-PDGF-BB is bound by NIH3T3 cells. However, pre-treatment with increasing concentrations of GFB-111, results in a concentration-dependent decrease in PDGF-BB binding.

[2] = target: IGF-1 (insulin-like growth factor-1) (Homo sapiens, UniProt P05019); assay: Binding to IGF-1 by gel electrophoresis
[3] = target: T2, EGF (Homo sapiens, UniProt P01133); assay: Inhibition of [125I]-EGF binding to NIH 3T3 cells overexpressing EGFR; settings: 10 μM
T2 construct: host or cells: NIH 3T3 cells overexpressing EGFR carry the receptor
Method: as §1, §2

[4] = tested on: PDGF-stimulated PDGFR tyrosine phosphorylation; assay: Inhibition of PDGF-stimulated PDGFR tyrosine phosphorylation in NIH 3T3 cells (anti-phosphotyrosine Western blot); format: cell-based; settings: concentrations as high as 10 mM
[5] = tested on: B16-F10 melanoma; assay: B16-F10 melanoma tumor growth in immune-competent mice; format: in vivo; settings: immune-competent mouse model

IGF-1 (insulin-like growth factor-1), sequence (P05019 49-118 limits assumed, species assumed): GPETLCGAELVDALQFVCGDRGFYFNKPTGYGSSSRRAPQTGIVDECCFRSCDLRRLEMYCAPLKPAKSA
T1 sequence (P15692 27-191 isoform P15692-4, species assumed): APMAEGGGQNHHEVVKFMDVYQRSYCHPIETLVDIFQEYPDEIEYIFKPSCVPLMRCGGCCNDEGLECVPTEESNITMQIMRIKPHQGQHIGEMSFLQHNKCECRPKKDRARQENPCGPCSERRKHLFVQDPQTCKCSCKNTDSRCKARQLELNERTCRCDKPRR
T2 sequence (P01133 971-1023 limits assumed, species assumed): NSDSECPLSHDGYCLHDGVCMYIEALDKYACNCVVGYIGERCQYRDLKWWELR

**Q.** What does the source list for `CCCCOc1c2cc(C(=O)Nc3cc4cc(c3)C(=O)NCC(=O)N[C@@H](CC(=O)O)C(=O)NCC(=O)N[C@@H](Cc3ccc(O)cc3)C(=O)NC4)cc1Cc1cc(C(=O)Nc3cc4cc(c3)C(=O)NCC(=O)N[C@@H](CC(=O)O)C(=O)NCC(=O)N[C@@H](Cc3ccc(O)cc3)C(=O)NC4)cc(c1OCCCC)Cc1cc(C(=O)Nc3cc4cc(c3)C(=O)NCC(=O)N[C@@H](CC(=O)O)C(=O)NCC(=O)N[C@@H](Cc3ccc(O)cc3)C(=O)NC4)cc(c1OCCCC)Cc1cc(C(=O)Nc3cc4cc(c3)C(=O)NCC(=O)N[C@@H](CC(=O)O)C(=O)NCC(=O)N[C@@H](Cc3ccc(O)cc3)C(=O)NC4)cc(c1OCCCC)C2` [GFB-111]?
**A.** inhibition at 10 µM [1]: 50%; Binding to IGF-1 [2]: does not bind; Effect on [125I]-EGF binding [3]: lack of significant effects

**Q.** GKGK [GFB-116] was tested. Which “Inhibition of PDGF-stimulated PDGFR tyrosine phosphorylation” value [4] did it give?
**A.** does not inhibit

**Q.** And the “Inhibition of growth of B16-F10 melanoma” value [5]?
**A.** effective
